Drawing on patent US20240025922A1, “TETRAHYDROPYRIDO[3,4-d]PYRIMIDINES AS HPK1 INHIBITORS” (Merck Patent GmbH, priority 2022, published 2024), this text covers IC50 for 19 molecules.

Like-named read-outs stand apart in the source and are kept apart here.

Assay [1] addresses full-length human HPK1 (MAP4K1) (Homo sapiens (Human), UniProt Q92918). Nature of the assay: HPK1 Kinase Assay (Biochemical Assay), ADP-Glo. The conditions noted are these: GST-HPK1 3.2 nM, 10 μM ATP, MBP substrate, read-out: HPK1 enzymatic IC50. The method in brief: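 ADP-Glo luminescence after a 120-min kinase reaction gave percent inhibition and IC50. The enzyme was Sf21-expressed N-terminal GST full-length human HPK1 at 3.2 nM in HEPES pH 7.5 buffer with MgCl2, DTT, Brij-35 and BSA.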

The target in assay [2] is HPK1 (SLP76 phosphorylation at Ser376 in Jurkat and EL-4 cells) (Homo sapiens, UniProt Q92918). It is filed as cell-based. The method in brief: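 Phospho-SLP76 (Ser376) in lysates measured by AlphaLISA for human Jurkat and by 19 h HTRF for mouse EL-4, giving % inhibition and IC50. Compounds applied 60 min before αCD3/αCD28 bead stimulation at 37 °C, lasting 15 min (Jurkat) or 30 min (EL-4).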
Chain of HPK1 (SLP76 phosphorylation at Ser376 in Jurkat and EL-4 cells) (Q92918 whole entry, looked up): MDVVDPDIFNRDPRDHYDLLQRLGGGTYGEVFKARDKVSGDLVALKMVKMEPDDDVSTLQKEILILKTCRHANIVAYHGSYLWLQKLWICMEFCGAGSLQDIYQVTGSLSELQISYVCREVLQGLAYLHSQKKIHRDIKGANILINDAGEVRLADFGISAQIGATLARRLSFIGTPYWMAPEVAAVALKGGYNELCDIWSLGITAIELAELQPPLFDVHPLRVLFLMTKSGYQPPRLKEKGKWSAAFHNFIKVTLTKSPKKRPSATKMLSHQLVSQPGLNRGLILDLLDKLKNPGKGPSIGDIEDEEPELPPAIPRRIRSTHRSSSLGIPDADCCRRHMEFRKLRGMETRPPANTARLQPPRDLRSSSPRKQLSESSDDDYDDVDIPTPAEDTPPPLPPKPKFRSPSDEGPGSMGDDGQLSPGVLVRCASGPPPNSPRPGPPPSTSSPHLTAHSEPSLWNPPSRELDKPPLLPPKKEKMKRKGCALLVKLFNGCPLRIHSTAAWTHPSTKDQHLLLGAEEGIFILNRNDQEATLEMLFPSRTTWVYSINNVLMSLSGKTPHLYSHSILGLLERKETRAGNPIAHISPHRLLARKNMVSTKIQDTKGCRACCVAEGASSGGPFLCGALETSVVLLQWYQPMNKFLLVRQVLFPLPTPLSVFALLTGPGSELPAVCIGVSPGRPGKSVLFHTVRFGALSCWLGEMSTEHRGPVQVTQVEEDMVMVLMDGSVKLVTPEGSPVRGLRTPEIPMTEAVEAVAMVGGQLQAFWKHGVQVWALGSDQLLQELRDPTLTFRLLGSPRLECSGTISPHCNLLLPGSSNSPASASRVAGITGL

[3] abbreviates: αCD3/αCD28 Dynabeads stimulated cells, pSLP76 (Ser376) detection; read-out: HPK1 pSLP76 IC50.
Where [4] appears, read: read-out: HPK1 pSLP76 IC50; αCD3/αCD28 Dynabeads stimulated cells, pSLP76 (Ser376) detection.

Chain of full-length human HPK1 (MAP4K1) (Q92918 whole entry): as the sequence (Q92918 whole entry, looked up) above

In the case of `Cc1c(N2CCc3cnc(Nc4ccc(CC#N)cc4)nc3C2)cnc2c1NCCO2` [Example 148, 2-{4-[(7-{8-methyl-1H,2H,3H-pyrido[2,3-b][1,4]oxazin-7-yl}-5H,6H,7H,8H-pyrido[3,4-d]pyrimidin-2-yl)amino]phenyl}acetonitrile; formic acid], the IC50 in assay [1] was under 100 nM; in assay [2] (setting [3]), under 500 nM.
Turning to `Cc1c(N2CCc3cnc(Nc4ccc(CO)cc4)nc3C2)cnc2c1NCCO2` [Example 133, {4-[(7-{8-methyl-1H,2H,3H-pyrido[2,3-b][1,4]oxazin-7-yl}-5H,6H,7H,8H-pyrido[3,4-d]pyrimidin-2-yl)amino]phenyl}methanol], the figures for the IC50 in assay [1] and in assay [2] (setting [3]) were under 100 nM and under 500 nM, respectively.
With `CNC(=O)c1ccc(Nc2ncc3c(n2)CN(c2cnc4c(c2Cl)NCCO4)CC3)cc1C` [Example 130, 4-[(7-{8-chloro-1H,2H,3H-pyrido[2,3-b][1,4]oxazin-7-yl}-5H,6H,7H,8H-pyrido[3,4-d]pyrimidin-2-yl)amino]-N,2-dimethylbenzamide], the IC50 in assay [1] is under 100 nM; in assay [2] (setting [3]), 500 to 1000 nM.
On to `Cc1cc(Nc2ncc3c(n2)CN(c2cnc4c(c2C)NCCO4)CC3)ccc1NC(=O)CN(C)C` [Example 45, 2-(dimethylamino)-N-{2-methyl-4-[(7-{8-methyl-1H,2H,3H-pyrido[2,3-b][1,4]oxazin-7-yl}-5H,6H,7H,8H-pyrido[3,4-d]pyrimidin-2-yl)amino]phenyl}acetamide], for which the IC50 in assay [1] is under 100 nM; in assay [2] (setting [3]) it was under 500 nM.
Turning to `Cc1cc(Nc2ncc3c(n2)CN(c2cnc4c(c2C)NCCO4)CC3)ccc1N(C)CCN1CCOCC1` [Example 17, N1,2-dimethyl-N4-(7-{8-methyl-1H,2H,3H-pyrido[2,3-b][1,4]oxazin-7-yl}-5H,6H,7H,8H-pyrido[3,4-d]pyrimidin-2-yl)-N1-[2-(morpholin-4-yl)ethyl]benzene-1,4-diamine; formic acid], the IC50 was under 100 nM in assay [1] and 500 to 1000 nM in assay [2] (setting [3]).
With `Cc1c(N2CCc3cnc(Nc4ccc(CS(C)(=O)=O)cc4)nc3C2)cnc2nc[nH]c12` [Example 171, N-[4-(methanesulfonylmethyl)phenyl]-7-{7-methyl-1H-imidazo[4,5-b]pyridin-6-yl}-5H,6H,7H,8H-pyrido[3,4-d]pyrimidin-2-amine], the values for the IC50 in assay [1] and in assay [2] (setting [4]) were under 100 nM and 500 to 1000 nM, respectively.
As for `Cc1c(N2CCc3cnc(Nc4ccc(Cn5cncn5)cc4)nc3C2)cnc2c1NCCO2` [Example 126, 7-{8-methyl-1H,2H,3H-pyrido[2,3-b][1,4]oxazin-7-yl}-N-{4-[(1H-1,2,4-triazol-1-yl)methyl]phenyl}-5H,6H,7H,8H-pyrido[3,4-d]pyrimidin-2-amine], the values for the IC50 in assay [1] and in assay [2] (setting [3]) were under 100 nM and under 500 nM, respectively.
In the case of `Cc1c(N2CCc3cnc(Nc4ccc(N5CCN(C)CC5)cc4)nc3C2)cnc2c1NCCO2` [Example 55, 7-(8-methyl-2,3-dihydro-1H-pyrido[2,3-b][1,4]oxazin-7-yl)-N-(4-(4-methylpiperazin-1-yl)phenyl)-5,6,7,8-tetrahydropyrido[3,4-d]pyrimidin-2-amine], the IC50 is under 100 nM in assay [1] and 500 to 1000 nM in assay [2] (setting [4]).
For the molecule `Cc1c(N2CCc3cnc(Nc4ccc(CS(C)(=O)=O)nc4)nc3C2)cnc2c1NCCO2` [Example 58, 6-(methanesulfonylmethyl)-N-(7-{8-methyl-1H,2H,3H-pyrido[2,3-b][1,4]oxazin-7-yl}-5H,6H,7H,8H-pyrido[3,4-d]pyrimidin-2-yl)pyridin-3-amine], the results for the IC50 in assay [1] and in assay [2] (setting [3]) were under 100 nM and under 500 nM, respectively.
As for `Cc1c(N2CCc3cnc(Nc4ccc(OCCN5CCOCC5)cc4)nc3C2)cnc2c1NCCO2` [Example 97, 7-(8-methyl-2,3-dihydro-1H-pyrido[2,3-b][1,4]oxazin-7-yl)-N-(4-(2-morpholinoethoxy)phenyl)-5,6,7,8-tetrahydropyrido[3,4-d]pyrimidin-2-amine], the IC50 in assay [1] is under 100 nM; in assay [2] (setting [4]), 500 to 1000 nM.
As for `Cc1c(N2CCc3cnc(Nc4cccc(CS(C)(=N)=O)c4)nc3C2)cnc2c1NCCO2` (centres unmarked) [Example 168, imino(methyl)(3-((7-(8-methyl-2,3-dihydro-1H-pyrido[2,3-b][1,4]oxazin-7-yl)-5,6,7,8-tetrahydropyrido[3,4-d]pyrimidin-2-yl)amino)benzyl)-16-sulfanone], the IC50 in assay [1] is under 100 nM; in assay [2] (setting [3]) it was under 500 nM.
Consider `CCc1cc(Nc2ncc3c(n2)CN(c2cnc4c(c2C)NCCO4)CC3)ccc1N1CCC(O)CC1` [Example 80, 1-(2-ethyl-4-((7-(8-methyl-2,3-dihydro-1H-pyrido[2,3-b][1,4]oxazin-7-yl)-5,6,7,8-tetrahydropyrido[3,4-d]pyrimidin-2-yl)amino)phenyl)piperidin-4-ol], for which the IC50 in assay [1] was under 100 nM; in assay [2] (setting [3]), 500 to 1000 nM.
Take `Cc1c(N2CCc3cnc(Nc4ccnc(N5CCOCC5)c4)nc3C2)cnc2c1NCCO2` [Example 77, 7-(8-methyl-2,3-dihydro-1H-pyrido[2,3-b][1,4]oxazin-7-yl)-N-(2-morpholinopyridin-4-yl)-5,6,7,8-tetrahydropyrido[3,4-d]pyrimidin-2-amine]: the IC50 was under 100 nM in assay [1] and under 500 nM in assay [2] (setting [3]).
With `Cc1cc(Nc2ncc3c(n2)CN(c2cnc4c(c2C)NCCO4)CC3)ccc1CS(C)(=O)=O` [Example 178, N-[4-(methanesulfonylmethyl)-3-methylphenyl]-7-{8-methyl-1H,2H,3H-pyrido[2,3-b][1,4]oxazin-7-yl}-5H,6H,7H,8H-pyrido[3,4-d]pyrimidin-2-amine], the values for the IC50 in assay [1] and in assay [2] (setting [3]) were under 100 nM and under 500 nM, respectively.
The corresponding values for `CNCc1cccc(Nc2ncc3c(n2)CN(c2cnc4c(c2C)NCCO4)CC3)c1` [Example 46, 7-{8-methyl-1H,2H,3H-pyrido[2,3-b][1,4]oxazin-7-yl}-N-{3-[(methylamino)methyl]phenyl}-5H,6H,7H,8H-pyrido[3,4-d]pyrimidin-2-amine] are under 100 nM and 500 to 1000 nM.
Regarding `Cc1c(N2CCc3cnc(Nc4ccc(OCS(C)(=O)=O)cc4)nc3C2)cnc2c1NCCO2` [Example 25, N-[4-(methanesulfonylmethoxy)phenyl]-7-{8-methyl-1H,2H,3H-pyrido[2,3-b][1,4]oxazin-7-yl}-5H,6H,7H,8H-pyrido[3,4-d]pyrimidin-2-amine], the IC50 is under 100 nM in assay [1] and under 500 nM in assay [2] (setting [3]).
Taken in the same sequence, the figures for `Cc1c(N2CCc3cnc(Nc4cnc5c(c4)CN(C)CC5)cc3C2)cnc2c1NCCO2` [Example 109, 6-methyl-N-(6-(8-methyl-2,3-dihydro-1H-pyrido[2,3-b][1,4]oxazin-7-yl)-5,6,7,8-tetrahydro-2,6-naphthyridin-3-yl)-5,6,7,8-tetrahydro-1,6-naphthyridin-3-amine] were 100 to 1000 nM and over 1000 nM.
Turning to `Cc1cc(Nc2ncc3c(n2)CN(c2cnc4c(c2C)NCCO4)CC3)ccc1NC(=O)CN1CCC1` [Example 3, 2-(azetidin-1-yl)-N-{2-methyl-4-[(7-{8-methyl-1H,2H,3H-pyrido[2,3-b][1,4]oxazin-7-yl}-5H,6H,7H,8H-pyrido[3,4-d]pyrimidin-2-yl)amino]phenyl}acetamide], the IC50 was under 100 nM in assay [1] and under 500 nM in assay [2] (setting [3]).
On to `Cc1c(N2CCc3cnc(Nc4cnc(CS(C)(=O)=O)c(Cl)c4)nc3C2)cnc2c1NCCO2` [Example 5, 5-chloro-6-(methanesulfonylmethyl)-N-(7-{8-methyl-1H,2H,3H-pyrido[2,3-b][1,4]oxazin-7-yl}-5H,6H,7H,8H-pyrido[3,4-d]pyrimidin-2-yl)pyridin-3-amine], for which the IC50 in assay [1] was under 100 nM; in assay [2] (setting [3]), over 1000 nM.

The IC50 is the concentration needed to halve the response being measured.
